Measurements published in patent US8889876B2, “Histone deacetylase inhibitors and uses thereof” (Jiangsu Hengyi Pharmaceutical Co., Ltd., priority 2008, dated 2014).

Assays:
histone deacetylase = assay: in vitro inhibition of histone deacetylase by HDAC inhibitor screening kit (Biovision K340-100); assay type: biochemical
Procedure: An assay for determining the in vitro inhibition activity of the compound on histone deacetylase is conducted according to the specification of HDAC inhibitor screeing kid (Biovision Company/Catalog #K340-100). […]

[1] = system: Hut78 T-cell Leukemia cell; assay: CCK-8 proliferation inhibition, Hut78; assay type: cell-based; conditions: for inhibition at 10 µM / inhibition at 100 µM: Homo sapiens, read-out: Hut-78 (inhibition %); for inhibition at 10 µM: HuT78, 10 μM; for inhibition at 100 µM: HuT78, 100 μM
Procedure: (§1) Detecting the inhibition rate of the compound concentrations of 100 μM and 10 μM to Hut78 T-cell Leukemia cell, Jurkat E6-1 human T-cell lymphoma, PANC-1 human pancreatic cancer cells, A549 human lung cancer cells, K562 human chronic myeloid leukemia cells, Hep3B2.1-7 human liver cancer cells, MDA-MB-435s human breast cancer cells, Colo320 human rectal cancer cells and PC-3 human prostate cancer using CCK-8 method.

[2] = system: PANC-1 human pancreatic cancer cells; assay: CCK-8 proliferation inhibition, PANC-1; assay type: cell-based; conditions: for inhibition at 10 µM / inhibition at 100 µM: Homo sapiens; for inhibition at 10 µM: PANC-1, 10 μM; for inhibition at 100 µM: PANC-1, 100 μM
Procedure: as §1

[3] = system: Jurkat E6-1 human T-cell lymphoma; assay: CCK-8 proliferation inhibition, Jurkat E6-1; assay type: cell-based; conditions: for inhibition at 10 µM / inhibition at 100 µM: Homo sapiens; for inhibition at 10 µM: Jurkat E6.1, 10 μM; for inhibition at 100 µM: Jurkat E6.1, 100 μM
Procedure: as §1

[4] = system: K562 human chronic myeloid leukemia cells; assay: CCK-8 proliferation inhibition, K562; assay type: cell-based; conditions: for inhibition at 10 µM / inhibition at 100 µM: Homo sapiens; for inhibition at 10 µM: K562, 10 μM; for inhibition at 100 µM: K562, 100 μM
Procedure: as §1

[5] = system: A549 human lung cancer cells; assay: CCK-8 proliferation inhibition, A549; assay type: cell-based; conditions: CCK-8 method; for inhibition at 10 µM / inhibition at 100 µM: Homo sapiens, A549
Procedure: as §1

[6] = system: MDA-MB-435s human breast cancer cells; assay: CCK-8 proliferation inhibition, MDA-MB-435s; assay type: cell-based; conditions: CCK-8 method; for inhibition at 10 µM / inhibition at 100 µM: Homo sapiens, MDA-MB-435S
Procedure: as §1

[7] = system: Hep3B2.1-7 human liver cancer cells; assay: CCK-8 proliferation inhibition, Hep3B2.1-7; assay type: cell-based; conditions: CCK-8 method; for inhibition at 10 µM / inhibition at 100 µM: Homo sapiens, Hep3B
Procedure: as §1

[8] = system: PC-3 human prostate cancer; assay: CCK-8 proliferation inhibition, PC-3; assay type: cell-based; conditions: CCK-8 method; for inhibition at 10 µM / inhibition at 100 µM: Homo sapiens
Procedure: as §1

[9] = system: Colo320 human rectal cancer cells; assay: CCK-8 proliferation inhibition, Colo320; assay type: cell-based; conditions: CCK-8 method; for inhibition at 10 µM / inhibition at 100 µM: Homo sapiens, COLO 320
Procedure: as §1

Molecule	Inhibition rate(%) (histone deacetylase; 3.91 μM)	Inhibition rate(%) (histone deacetylase; 62.5 μM)	inhibition at 10 µM [1]	inhibition at 100 µM [1]	inhibition at 10 µM [2]	inhibition at 100 µM [2]	inhibition at 10 µM [3]	inhibition at 100 µM [3]	inhibition at 10 µM [4]	inhibition at 100 µM [4]	inhibition at 10 µM ([5]; compound concentration 10 μM)	inhibition at 100 µM ([5]; compound concentration 100 μM)	inhibition at 10 µM ([6]; compound concentration 10 μM)	inhibition at 100 µM ([6]; compound concentration 100 μM)	inhibition at 10 µM ([7]; compound concentration 10 μM)	inhibition at 100 µM ([7]; compound concentration 100 μM)	inhibition at 10 µM ([8]; compound concentration 10 μM)	inhibition at 100 µM ([8]; compound concentration 100 μM)	inhibition at 10 µM ([9]; compound concentration 10 μM)	inhibition at 100 µM ([9]; compound concentration 100 μM)	other results
COc1cccc(/C=C/C(=O)NCc2ccc(C(=O)Nc3ccncc3N)cc2)c1 [V-92]	24.0%	56.1%	46.2%	78.5%	6.3%	33.3%	87.5%	95.5%	68.7%	91.1%	2.2%	54.2%	23.7%	77.7%	20.2%	80.5%	41%	73.8%	6%	65.5%	Inhibition rate(%) (histone deacetylase; 2 mM): 65.7%
Nc1ncccc1NC(=O)c1ccc(CNC(=O)OCc2ccccc2)cc1 [V-8, N-(2-amino-3-pyridyl)-4-(benzyloxyacylaminomethyl)benzamide]	6.3%	10.3%	6.4%	15.8%	14.4%	11.9%	5.4%	23.7%	-1.3%	38.1%	-43.9%	-19.4%	-20.7%	-10.4%	-10.2%	-12.1%	5.2%	15.9%	7.1%	16.8%	Inhibition rate(%) (histone deacetylase; 2 mM): 35.3%
Cc1ccc(COC(=O)NCc2ccc(C(=O)Nc3cccnc3N)cc2)cc1 [V-9, N-(2-amino-3-pyridyl)-4-[(4-methylbenzyloxyacyl)aminomethyl]benzamide]	2.8%	16.8%	15%	43.9%	10.5%	45.9%	62.2%	87.9%	49.4%	83.2%	-44.3%	-13.1%	-14.3%	84.1%	7.3%	66.6%	0%	66.7%	13%	45.3%	Inhibition rate(%) (histone deacetylase; 2 mM): 36.7%
COc1cc(CCC(=O)NCc2ccc(C(=O)Nc3cccnc3N)cc2)cc(OC)c1OC [V-54, N-(2-amino-3-pyridyl)-4-[3-(3,4,5-methoxyphenyl)propionylaminomethyl]benzamide]	2.2%	3.1%																			Inhibition rate(%) (histone deacetylase; 2 mM): 42.5%; Hut-78 (inhibition %) ([1]; 10 μM): 0.9%; Hut-78 (inhibition %) ([1]; 100 μM): 10.6%; PANC-1 (inhibition %) ([2]; 10 μM): 15.6%; PANC-1 (inhibition %) ([2]; 100 μM): 11.7%; Jurkat E6-1 (inhibition %) ([3]; 10 μM): 2.9%; Jurkat E6-1 (inhibition %) ([3]; 100 μM): 5.8%; K562 (inhibition %) ([4]; 10 μM): 12.7%; K562 (inhibition %) ([4]; 100 μM): 13.1%; A549 (inhibition %) ([5]; compound concentration 10 μM): 7.5%; A549 (inhibition %) ([5]; compound concentration 100 μM): 12.8%; 435s(inhibition %) ([6]; compound concentration 10 μM): 14.6%; 435s(inhibition %) ([6]; compound concentration 100 μM): 14.0%; Hep3B (inhibition %) ([7]; compound concentration 10 μM): 4.2%; Hep3B (inhibition %) ([7]; compound concentration 100 μM): 4.7%; PC-3 (inhibition %) ([8]; compound concentration 10 μM): 5.6%; PC-3 (inhibition %) ([8]; compound concentration 100 μM): 5.9%; Colo320 (inhibition %) ([9]; compound concentration 10 μM): 6.8%; Colo320 (inhibition %) ([9]; compound concentration 100 μM): 2.7%
Nc1cnccc1NC(=O)c1ccc(CNC(=O)/C=C/c2ccc([N+](=O)[O-])cc2)cc1 [V-38]	24.2%	55.2%	39.6%	86.9%	5.1%	40.8%	76.9%	95.1%	54%	88.2%	4.2%	63.7%	16.6%	73.6%	11.7%	63.5%	8.7%	52.6%	-0.2%	44.4%	Inhibition rate(%) (histone deacetylase; 2 mM): 76.1%
N-(2-amino-3-pyridyl)-4-[(4-methoxybenzyloxyacyl)aminomethyl]benzamide [V-11]	6.5%	22.1%																			Inhibition rate(%) (histone deacetylase; 2 mM): 39.2%; Hut-78 (inhibition %) ([1]; 10 μM): 10.7%; Hut-78 (inhibition %) ([1]; 100 μM): 60.3%; PANC-1 (inhibition %) ([2]; 10 μM): 1.1%; PANC-1 (inhibition %) ([2]; 100 μM): 35.2%; Jurkat E6-1 (inhibition %) ([3]; 10 μM): 26.4%; Jurkat E6-1 (inhibition %) ([3]; 100 μM): 91.0%; K562 (inhibition %) ([4]; 10 μM): 29.7%; K562 (inhibition %) ([4]; 100 μM): 82.6%; A549 (inhibition %) ([5]; compound concentration 10 μM): −7.4%; A549 (inhibition %) ([5]; compound concentration 100 μM): 24.9%; 435s(inhibition %) ([6]; compound concentration 10 μM): −16.5%; 435s(inhibition %) ([6]; compound concentration 100 μM): 85.4%; Hep3B (inhibition %) ([7]; compound concentration 10 μM): 8.1%; Hep3B (inhibition %) ([7]; compound concentration 100 μM): 53.2%; PC-3 (inhibition %) ([8]; compound concentration 10 μM): 8.1%; PC-3 (inhibition %) ([8]; compound concentration 100 μM): 49.8%; Colo320 (inhibition %) ([9]; compound concentration 10 μM): 8.9%; Colo320 (inhibition %) ([9]; compound concentration 100 μM): 48.5%
Cc1ccc(COC(=O)NCc2ccc(C(=O)Nc3ccncc3N)cc2)cc1 [V-10]			15.5%	66.6%	16.9%	19.7%	27.2%	93.3%	53.6%	87.2%	-16.9%	45.7%	8%	79.1%	-7%	57.5%	23.7%	56%	-5.5%	59.2%	
COc1ccc(CCC(=O)NCc2ccc(C(=O)Nc3cccnc3N)cc2)cc1 [V-52, N-(2-amino-3-pyridyl)-4-[3-(4-methoxyphenyl)propionylaminomethyl]benzamide]			6.5%	50.8%	13.3%	17.7%	7.6%	73.8%	29%	67.3%	9.8%	9.9%	13.9%	22.8%	19%	78.6%	-7.4%	24.7%	8%	17.7%	
COc1ccc(/C=C/C(=O)NCc2ccc(C(=O)Nc3cccnc3N)cc2)cc1 [V-29, N-(2-amino-3-pyridyl)-4-[(4-methoxycinnamoyl)aminomethyl]benzamide]			45.2%	75.6%	12.5%	33.3%	49.3%	89.7%	52.2%	85.2%	0%	41.3%	17%	57.8%	11%	68.1%	40.1%	64.2%	9.5%	45.9%	
Cc1ccc(CCC(=O)NCc2ccc(C(=O)Nc3ccncc3N)cc2)cc1 [V-51]			-0.5%	35.2%	1.4%	-6.1%	14.8%	42.4%	-2.4%	53.5%	-8.9%	-3.2%	14.1%	31.3%	24.9%	26.9%	21.4%	45%	-5.7%	7.9%	
